The text below walks through data of patent publication US20240083857A1, “2-Methyl-Quinazolines” (Bayer Pharma Aktiengesellschaft, priority 2017, published 2024).

Assay [1] has as its target human SOS1 (nucleotide exchange of K-Ras^G12C) (Homo sapiens, UniProt Q07889). The assay is described as follows: Biochemical assay 2: K-Ras^G12C activation assay by hSOS1 at high GTP concentration (HTRF). The conditions noted are these: high GTP; read-out: Assay 2 (KRAS-Activation by SOS high GTP) activity expressed as IC50.
Assay [2] addresses K-Ras^G12C : hSOS1 interaction (Homo sapiens, UniProt Q07889). The assay is described as follows: Biochemical assay 1: K-Ras^G12C interaction assay with hSOS1 (HTRF). Format: binding. To be noted: read-out: Assay 1 (KRAS-SOS Interaction) activity expressed as IC50. (Time-resolved FRET reads energy transfer from a long-lived donor to a nearby acceptor.)

By IC50 is commonly meant the point on the concentration scale where inhibition reaches its midpoint. With `CCNCc1ccccc1-c1ccc(C(C)Nc2nc(C)nc3cc(OC)c(OC)cc23)s1` (centres unmarked) [Example 367, N-[1-(5-{2-[(ethylamino)methyl]phenyl}thiophen-2-yl)ethyl]-6,7-dimethoxy-2-methylquinazolin-4-amine], the half-inhibitory concentration (IC50) turned out to be 0.0613 µM in assay [1] and 0.0716 µM in assay [2].

With `CCOc1cc2c(N[C@H](C)c3cccc(-c4cn[nH]c4)c3)nc(C)nc2cc1OC` [Example 355, 6-Ethoxy-7-methoxy-2-methyl-N-{(1R)-1-[3-(1H-pyrazol-4-yl)phenyl]ethyl}-quinazolin-4-amine], the IC50 in assay [1] amounted to 0.571 µM; in assay [2], 0.485 µM.

On to `Cc1nc(N[C@H](C)c2ccc(F)cc2)c2cc(N=S(C)(C)=O)ccc2n1` [Example 32, 6-{[dimethyl(oxido)-lambda6-sulfanylidene]amino}-N-[(1R)-1-(4-fluorophenyl)ethyl]-2-methylquinazolin-4-amine], for which the concentration for half-maximal inhibition (IC50) turned out to be 1.4 µM in assay [1] and 1.07 µM in assay [2].

In the case of `COc1cc2nc(C)nc(N[C@H](C)c3cccc(-c4cn[nH]c4)c3)c2cc1O` [Example 345, 7-methoxy-2-methyl-4-({(1R)-1-[3-(1H-pyrazol-4-yl)phenyl]ethyl}amino)quinazolin-6-ol], the IC50 in assay [1] is 7.84 µM; in assay [2], 14.6 µM.

As to `COc1cc2nc(C)nc(N[C@H](C)c3cccc(-c4cn[nH]c4)c3)c2cc1OCCC(C)C` [Example 351, 7-methoxy-2-methyl-6-(3-methylbutoxy)-N-{(1R)-1-[3-(1H-pyrazol-4-yl)phenyl]ethyl}quinazolin-4-amine], the half-inhibitory concentration (IC50) in assay [1] is 1.2 µM; in assay [2], 1.71 µM.

In the case of `Cc1nc(N[C@H](C)c2ccccc2)c2cc(N=S(C)(C)=O)ccc2n1` [Example 30, 6-{[dimethyl(oxido)-lambda6-sulfanylidene]amino}-2-methyl-N-[(1R)-1-phenylethyl]quinazolin-4-amine], the IC50 in assay [1] came out at 1.1 µM; in assay [2] it was 1.34 µM.

For `COc1cc2nc(C)nc(N[C@H](C)c3cccc(Br)c3)c2cc1OCc1ccccc1` [Example 343, 6-(benzyloxy)-N-[(1R)-1-(3-bromophenyl)ethyl]-7-methoxy-2-methylquinazolin-4-amine], the IC50 in assay [1] was found to be 1.61 µM; in assay [2], 1.68 µM.

In the case of `CCCCNCc1ccccc1-c1ccc(C(C)Nc2nc(C)nc3cc(OC)c(OC)cc23)s1` (centres unmarked) [Example 366, N-[1-(5-{2-[(butylamino)methyl]phenyl}thiophen-2-yl)ethyl]-6,7-dimethoxy-2-methylquinazolin-4-amine], the IC50 in assay [1] was found to be 0.0969 µM; in assay [2], 0.0976 µM.

In the case of `COc1cc2nc(C)nc(NC(C)c3ccc(-c4ccccc4[C@@H](C)NC(=O)OC(C)(C)C)s3)c2cc1OC` (stereo in doubt) [Example 358, tert-butyl {1-[2-(5-{1-[(6,7-dimethoxy-2-methylquinazolin-4-yl)amino]ethyl}thiophen-2-yl)phenyl]ethyl}carbamate], the values for the IC50 in assay [1] and in assay [2] were 1.53 µM and 1.44 µM, respectively.

`COc1cc2nc(C)nc(N[C@H](C)c3cccc(-c4cn[nH]c4)c3)c2cc1OCC1COC1` [Example 354, 7-methoxy-2-methyl-6-(oxetan-3-ylmethoxy)-N-{(1R)-1-[3-(1H-pyrazol-4-yl)phenyl]ethyl}quinazolin-4-amine]: the IC50 in assay [1] worked out at 0.516 µM; in assay [2] it was 0.313 µM.

Turning to `COc1cc2nc(C)nc(N[C@H](C)c3cccc(-c4cn[nH]c4)c3)c2cc1OC(C)C` [Example 353, 7-methoxy-2-methyl-6-(propan-2-yloxy)-N-{(1R)-1-[3-(1H-pyrazol-4-yl)phenyl]ethyl}quinazolin-4-amine], the IC50 in assay [1] was 0.42 µM; in assay [2], 0.36 µM.

As for `COc1cc2nc(C)nc(NC(C)c3csc4ccccc34)c2cc1OC` (centres unmarked) [Example 27, N-[1-(1-benzothiophen-3-yl)ethyl]-6,7-dimethoxy-2-methylquinazolin-4-amine], the results for the half-inhibitory concentration (IC50) in assay [1] and in assay [2] were 0.402 µM and 0.368 µM, respectively.

For the compound `COc1cc2nc(C)nc(NC(C)c3cccc4c3CCO4)c2cc1OC` (centres unmarked) [Example 22, N-[1-(2,3-dihydro-1-benzofuran-4-yl)ethyl]-6,7-dimethoxy-2-methylquinazolin-4-amine], the IC50 in assay [1] stood at 0.219 µM; in assay [2] it was 0.177 µM.

As to `COc1cc2nc(C)nc(N[C@H](C)c3cccc(-c4ccc(O)nc4)c3)c2cc1OC` [Example 68, 5-(3-{(1R)-1-[(6,7-dimethoxy-2-methylquinazolin-4-yl)amino]ethyl}phenyl)pyridin-2-ol], the IC50 in assay [1] stood at 0.486 µM; in assay [2], 0.137 µM.

With `COc1cc2nc(C)nc(NC(C)c3ccc(-c4ccccc4-c4cn[nH]c4)s3)c2cc1OC` (centres unmarked) [Example 361, 6,7-dimethoxy-2-methyl-N-[1-{5-[2-(1H-pyrazol-4-yl)phenyl]thiophen-2-yl}ethyl]-quinazolin-4-amine], the 50% inhibitory concentration (IC50) worked out at 4.05 µM in assay [1] and 2.46 µM in assay [2].

On to `COc1cc2nc(C)nc(N[C@H](C)c3ccc(-c4ccccc4CCN)s3)c2cc1OC` (stereo in doubt) [Example 357, N-[1-{5-[2-(2-aminoethyl)phenyl]thiophen-2-yl}ethyl]-6,7-dimethoxy-2-methylquinazolin-4-amine], for which the results for the IC50 in assay [1] and in assay [2] were 0.0488 µM and 0.0512 µM, respectively.

As for `COc1cc2nc(C)nc(NC(C)c3ccc(-c4ccccc4CCNC(=O)OC(C)(C)C)s3)c2cc1OC` (centres unmarked) [Example 352, tert-butyl {2-[2-(5-{1-[(6,7-dimethoxy-2-methylquinazolin-4-yl)amino]ethyl}thiophen-2-yl)phenyl]ethyl}carbamate], the half-maximal inhibitory concentration (IC50) is 12.2 µM in assay [1] and 16 µM in assay [2].

For `COc1cc2nc(C)nc(N[C@H](C)c3cccc(-n4cccn4)c3)c2cc1OC` [Example 341, 6,7-dimethoxy-2-methyl-N-{(1R)-1-[3-(1H-pyrazol-1-yl)phenyl]ethyl}quinazolin-4-amine], the half-inhibitory concentration (IC50) in assay [1] came to 3.73 µM; in assay [2] it was 2.83 µM.

As for `COc1cc2nc(C)nc(NC(C)c3ccc4c(c3)CCCC4)c2cc1OC` (centres unmarked) [Example 25, 6,7-dimethoxy-2-methyl-N-[1-(5,6,7,8-tetrahydronaphthalen-2-yl)ethyl]quinazolin-4-amine], the 50% inhibitory concentration (IC50) in assay [1] was determined as 0.85 µM; in assay [2], 0.541 µM.

For `COc1cc2nc(C)nc(N[C@H](C)c3cccc(-c4cn[nH]c4)c3)c2cc1OCC1CC1` [Example 346, 6-(cyclopropylmethoxy)-7-methoxy-2-methyl-N-{(1R)-1-[3-(1H-pyrazol-4-yl)phenyl]ethyl}quinazolin-4-amine], the concentration for half-maximal inhibition (IC50) amounted to 0.395 µM in assay [1] and 0.342 µM in assay [2].

Regarding `CCOc1cc2c(N[C@H](C)c3cccc(-c4cnn(CC)c4)c3)nc(C)nc2cc1OC` [Example 356, 6-ethoxy-N-{(1R)-1-[3-(1-ethyl-1H-pyrazol-4-yl)phenyl]ethyl}-7-methoxy-2-methylquinazolin-4-amine], the concentration for half-maximal inhibition (IC50) in assay [1] stood at 0.777 µM; in assay [2], 0.655 µM.

Regarding `COc1ccc2cc(C(C)Nc3nc(C)nc4cc(OC)c(OC)cc34)ccc2c1` (centres unmarked) [Example 35, 6,7-dimethoxy-N-[1-(6-methoxy-2-naphthyl)ethyl]-2-methylquinazolin-4-amine], the results for the half-maximal inhibitory concentration (IC50) in assay [1] and in assay [2] were 4.78 µM and 4.72 µM, respectively.
